Tests used:
[1] = test system: immune cells secreting IFN-γ and TNF-α; test: MC38 model, co-administration with cisplatin: flow cytometry of cancer tissue; type: in vivo, mouse; details: versus control group; FIG. 34c
MIF = test: MC38 model, co-administration with cisplatin: anti-MIF antibody titer and serum cytokines; type: in vivo, mouse; details: versus control group; FIG. 33
Source text: Thus, it was considered that the production of anti-MIF antibody increased, and it was expected that the production of serum cytokines, which is a measure of the increase in immune activity in the body, would also be increased.

N.N.[Cl][Pt][Cl] [cisplatin]
TCRγδ T cells secreting IFN-γ in cancer tissue [1]: increased
serum cytokine (IFN-γ and TNF-α) levels (MIF): significantly increased

Source: patent US20240165216A1, “NOVEL R[…] OF MYC[…] AND USE OF SAME” (priority 2021, published 2024)
